The test system of experiment [1] is RKO (RKOp27) human colon adenocarcinoma cells. The experiment can be described thus: Alamar Blue cell viability assay, anti-proliferative/cytotoxic activity on proliferating RKO subclones. Type of experiment: cell-based. The conditions noted are these: RKOp27, 72 h, RKO p27 uninduced (proliferating) cells, value = class bound given in Table A, read-out: −logIC50 RKO p27 uninduced (proliferating) (converted). The method in brief: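 Alamar Blue fluorescence (ex 544, em 590 nm) after 72 h compound exposure at 37 °C, 5% CO2, normalised to untreated controls set at 100%. Cells were seeded at 5000 per well and dosed 24 h later with serial semi-logarithmic dilutions in 10% FCS DMEM, four replicates each. −log IC50 [mol/l] was derived from concentration-effect curves.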
(In general: Resazurin is reduced to fluorescent resorufin, in cell work by metabolically active cells.)

In experiment [2] the test system is subclones of RKO colon adenocarcinoma cells (RKOp27 or RKOp21) arrested by Ponasterone A. As to the kind of experiment: Alamar Blue cell viability assay, cell cycle specific mode of action: cells arrested by ectopic p27Kip1 induced by Ponasterone A versus proliferating cells. Format: cell-based. The conditions noted are these: Homo sapiens, RKO p27 induced (arrested) cells, 10 μM Ponasterone A, 72 hours, value = class bound given in Table A, read-out: −logIC50 RKO p27 induced (arrested) (converted). The method in brief:
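Viability of proliferating versus Ponasterone A (10 μM)-arrested RKOp27/RKOp21 cells after 72 h compound exposure at 37° C, in quadruplicate. Read-out is Alamar Blue fluorescence (544/590 nm) normalised to untreated cells = 100%; values as −log IC50.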

A value given as a limit tells only on which side of the number the result lay.

Regarding `N#Cc1c(NC(=O)/C=C/c2cccnc2)sc2c1CCC(OC(=O)NC1CC1)C2` (centres unmarked) [Example 21, Cyclopropyl-carbamic acid 3-cyano-2-((E)-3-pyridin-3-yl-allanoylamino)-4,5,6,7-tetrahydro-benzo[b]thiophen-6-yl ester], the figures for the IC50 in experiment [1] and in experiment [2] were ≤ 501 nM and ≥ 100000 nM, respectively.
For `CCOc1ccccc1CCC(=O)Nc1sc2c(c1C#N)CCC(OC(=O)NCc1cnn(C)c1)C2` (centres unmarked) [Example 170, (1-Methyl-1H-pyrazol-4-ylmethyl)-carbamic acid 3-cyano-2-[3-(2-ethoxy-phenyl)-propanoylamino]-4,5,6,7-tetrahydro-benzo[b]thiophen-6-yl ester] the same measures were ≤ 501 nM and ≥ 100000 nM.
For `CNC(=O)OCC1CCc2c(sc(NC(=O)/C=C/c3cccnc3)c2C#N)C1` (centres unmarked) [Example 16, Methyl-carbamic acid 3-cyano-2-((E)-3-pyridin-3-yl-allanoylamino)-4,5,6,7-tetrahydro-benzo[b]thiophen-6-ylmethyl ester] the same measures were ≤ 501 nM and ≥ 100000 nM.
As to `Cc1oncc1CNC(=O)OCC1CCc2c(sc(NC(=O)/C=C/c3cccnc3)c2C#N)C1` (centres unmarked) [Example 71, (5-Methyl-isoxazol-4-ylmethyl)-carbamic acid 3-cyano-2-((E)-3-pyridin-3-yl-allanoylamino)-4,5,6,7-tetrahydro-benzo[b]thiophen-6-ylmethyl ester], the IC50 in experiment [1] was 501 to 2000 nM; in experiment [2], ≥ 100000 nM.
For `N#Cc1c(NC(=O)/C=C/c2cccnc2)sc2c1CCC(COC(=O)N1CC(O)C1)C2` (centres unmarked) [Example 73, 3-Hydroxy-azetidine-1-carboxylic acid 3-cyano-2-((E)-3-pyridin-3-yl-allanoylamino)-4,5,6,7-tetrahydro-benzo[b]thiophen-6-ylmethyl ester], the IC50 in experiment [1] is ≤ 501 nM; in experiment [2] it was ≥ 100000 nM.
For `CC1CCCN1C(=O)OC1CCc2c(sc(NC(=O)/C=C/c3cccnc3)c2C#N)C1` (centres unmarked) [Example 93, 2-Methylpyrrolidine-1-carboxylic acid 3-cyano-2-((E)-3-pyridin-3-yl-allanoylamino)-4,5,6,7-tetrahydro-benzo[b]thiophen-6-yl ester] the same measures were ≤ 501 nM and ≥ 100000 nM.
For `CNC(=O)OCC1CCc2c(sc(NC(=O)CCc3cccc(OC)c3)c2C#N)C1` (centres unmarked) [Example 233, Methyl-carbamic acid 3-cyano-2-[3-(3-methoxy-phenyl)-propanoylamino]-4,5,6,7-tetrahydro-benzo[b]thiophen-6-ylmethyl ester] the same measures were ≤ 501 nM and ≥ 100000 nM.
Consider `CC1CCCN1C(=O)OCC1CCc2c(sc(NC(=O)/C=C/c3cccnc3)c2C#N)C1` (centres unmarked) [Example 88, 2-Methylpyrrolidine-1-carboxylic acid 3-cyano-2-((E)-3-pyridin-3-yl-allanoylamino)-4,5,6,7-tetrahydro-benzo[b]thiophen-6-ylmethyl ester], for which the values for the IC50 in experiment [1] and in experiment [2] were ≤ 501 nM and ≥ 100000 nM, respectively.
Consider `Cn1cccc1CNC(=O)OCC1CCc2c(sc(NC(=O)/C=C/c3cccnc3)c2C#N)C1` (centres unmarked) [Example 51, (1-Methyl-1H-pyrrol-2-ylmethyl)-carbamic acid 3-cyano-2-((E)-3-pyridin-3-yl-allanoylamino)-4,5,6,7-tetrahydro-benzo[b]thiophen-6-ylmethyl ester], for which the IC50 in experiment [1] is 501 to 2000 nM; in experiment [2], ≥ 100000 nM.
For `Cc1nocc1CNC(=O)OCC1CCc2c(sc(NC(=O)CC(C)c3ccccc3)c2C#N)C1` (centres unmarked) [Example 352, (3-Methyl-isoxazol-4-ylmethyl)-carbamic acid 3-cyano-2-(3-phenyl-butanoylamino)-4,5,6,7-tetrahydro-benzo[b]thiophen-6-ylmethyl ester] the same measures were ≤ 501 nM and ≥ 100000 nM.
`CC(CC(=O)Nc1sc2c(c1C#N)CCC(COC(=O)NCC1CCCO1)C2)c1ccccc1` (centres unmarked) [Example 315, (Tetrahydrofuran-2-ylmethyl)-carbamic acid 3-cyano-2-(3-phenyl-butanoylamino)-4,5,6,7-tetrahydro-benzo[b]thiophen-6-ylmethyl ester]: the IC50 is 501 to 2000 nM in experiment [1] and ≥ 50100 nM in experiment [2].
As to `CCOC(=O)OC1CCc2c(sc(NC(=O)CCc3cccnc3)c2C#N)C1` (centres unmarked) [Example 158, Carbonic acid 3-cyano-2-(3-pyridin-3-yl-propanoylamino)-4,5,6,7-tetrahydro-benzo[b]thiophen-6-yl ester ethyl ester], the IC50 in experiment [1] is 501 to 2000 nM; in experiment [2], ≥ 100000 nM.
For `CCCNC(=O)OC1CCc2c(sc(NC(=O)/C=C/c3cccnc3)c2C#N)C1` (centres unmarked) [Example 107, Propyl-carbamic acid 3-cyano-2-((E)-3-pyridin-3-yl-allanoylamino)-4,5,6,7-tetrahydro-benzo[b]thiophen-6-yl ester] the same measures were ≤ 501 nM and ≥ 100000 nM.
For `CCNC(=O)OCC1CCc2c(sc(NC(=O)CCc3cccc(OC)c3)c2C#N)C1` (centres unmarked) [Example 252, Ethyl-carbamic acid 3-cyano-2-[3-(3-methoxy-phenyl)-propanoylamino]-4,5,6,7-tetrahydro-benzo[b]thiophen-6-ylmethyl ester] the same measures were ≤ 501 nM and ≥ 100000 nM.
For `CCOc1ccccc1CCC(=O)Nc1sc2c(c1C#N)CCC(COC(=O)NCc1ccccn1)C2` (centres unmarked) [Example 184, Pyridin-2-ylmethyl-carbamic acid 3-cyano-2-[3-(2-ethoxy-phenyl)-propanoylamino]-4,5,6,7-tetrahydro-benzo[b]thiophen-6-ylmethyl ester] the same measures were ≤ 501 nM and ≥ 100000 nM.
`COc1cccc(C(C)CC(=O)Nc2sc3c(c2C#N)CCC(OC(=O)NCc2cnn(C)c2)C3)c1` (centres unmarked) [Example 274, (1-Methyl-1H-pyrazol-4-ylmethyl)-carbamic acid 3-cyano-2-[3-(3-methoxy-phenyl)-butanoylamino]-4,5,6,7-tetrahydro-benzo[b] thiophen-6-yl ester]: the IC50 is 501 to 2000 nM in experiment [1] and ≥ 100000 nM in experiment [2].
Taken in the same sequence, the figures for `CC(CC(=O)Nc1sc2c(c1C#N)CCC(COC(=O)NC(C)c1ccccc1)C2)c1cccnc1` (centres unmarked) [Example 283, (1-Phenyl-ethyl)-carbamic acid 3-cyano-2-(3-pyridin-3-yl-butanoylamino)-4,5,6,7-tetrahydro-benzo[b]thiophen-6-ylmethyl ester] were 501 to 2000 nM and ≥ 100000 nM.
For `N#Cc1c(NC(=O)/C=C/c2cccnc2)sc2c1CCC(OC(=O)N1CCCC1)C2` (centres unmarked) [Example 62, Pyrrolidine-1-carboxylic acid 3-cyano-2-((E)-3-pyridin-3-yl-allanoylamino)-4,5,6,7-tetrahydro-benzo[b]thiophen-6-yl ester] the same measures were ≤ 501 nM and ≥ 100000 nM.
Taken in the same sequence, the figures for `N#Cc1c(NC(=O)/C=C/c2cccnc2)sc2c1CCC(COC(=O)N1CC[C@@H](O)C1)C2` (stereo partly drawn) [Example 145, (R)-3-Hydroxy-pyrrolidine-1-carboxylic acid 3-cyano-2-((E)-3-pyridin-3-yl-allanoylamino)-4,5,6,7-tetrahydro-benzo[b]thiophen-6-ylmethyl ester] were ≤ 501 nM and ≥ 100000 nM.

Values taken from patent US20110044938A1 (NYCOMED GMBH, priority 2006, published 2011).
